How the values were obtained:
Ccr = Ccr (Pseudomonas putida, UniProt H9N291); assay: NAD(P)H:cytochrome c oxidoreductase (Ccr) activity; type: biochemical, Pseudomonas putida CBB5
Method: NADH:cytochrome c oxidoreductase (cytochrome c reductase, Ccr) activity was determined as described by Ueda et al. (1972). A typical 1-mL reaction contained 300 μM NADH, 87 μM bovine cytochrome c (type III; Sigma), and 1-20 μg CBB5 protein (depending on purity) in 50 mM KPi buffer. The activity was determined by monitoring the increase in absorbance at 550 nm due to reduction of […] cytochrome c at 30° C. An extinction coefficient of 21,000 M^−1 cm^−1 for reduced minus oxidized cytochrome c was used for quantitating the activity. One unit of activity was defined as one μmol of cytochrome c reduced per minute.

[1] = target: T1, Ndm, two-subunit N-demethylase component purified from Pseudomonas putida CBB5 (UniProt H9N289)
T1 sequence 1: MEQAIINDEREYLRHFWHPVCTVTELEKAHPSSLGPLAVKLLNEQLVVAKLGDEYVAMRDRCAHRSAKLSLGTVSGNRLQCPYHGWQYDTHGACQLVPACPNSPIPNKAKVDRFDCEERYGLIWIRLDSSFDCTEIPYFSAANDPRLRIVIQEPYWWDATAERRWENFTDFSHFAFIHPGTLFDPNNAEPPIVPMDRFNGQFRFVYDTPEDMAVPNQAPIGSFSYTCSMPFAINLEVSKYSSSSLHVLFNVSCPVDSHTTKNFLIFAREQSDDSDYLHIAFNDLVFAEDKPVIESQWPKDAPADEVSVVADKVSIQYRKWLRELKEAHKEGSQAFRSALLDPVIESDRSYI
T1 sequence 2: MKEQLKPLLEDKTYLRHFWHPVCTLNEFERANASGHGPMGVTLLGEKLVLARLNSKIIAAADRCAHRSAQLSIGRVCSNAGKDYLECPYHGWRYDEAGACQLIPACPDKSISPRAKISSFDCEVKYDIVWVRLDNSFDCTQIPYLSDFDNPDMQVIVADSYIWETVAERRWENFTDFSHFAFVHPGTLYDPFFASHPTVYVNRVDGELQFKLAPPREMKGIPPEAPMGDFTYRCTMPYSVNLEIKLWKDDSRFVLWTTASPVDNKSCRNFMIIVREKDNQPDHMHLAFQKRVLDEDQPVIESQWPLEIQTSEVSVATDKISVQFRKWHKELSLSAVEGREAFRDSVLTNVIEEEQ

NdmA-His6 = target: T2, NdmA-His6 (Pseudomonas putida, UniProt H9N289); assay: Kinetic parameters of NdmA-His6 with His6-NdmD; type: biochemical, Pseudomonas putida CBB5
T2 sequence (H9N289 1-351): T1 sequence 1
Method: (§1) Methylxanthine N-demethylase activity assay contained, in 1-ml total volume, 0.5 mM methylxanthine, 1 mM NADH, 50 μM Fe(NH4)2(SO4)2, and an appropriate amount of NdmA-His6 or NdmB-His6 (7.4 μg-2.5 mg protein depending on substrate specificity) in 50 mM KPi buffer (pH 7.5). Approximately 4 U of partially purified reductase, prepared as described previously (Summers et al., 2011) or 59 U of purified His6-NdmD was added to reaction mixture. Catalase from bovine liver (4,000 U) was also added to reactions containing His6-NdmD. The reaction mixture was incubated at 30° C. with 300 rpm shaking on an incubating microplate shaker (VWR, Radnor, Pa.). Periodically, a small aliquot was sampled from the reaction mixture and mixed with equal volume of acetonitrile for quantifying concentrations of methylxanthines and N-demethylated products by HPLC. One unit of N-demethylase activity was defined as the consumption of one […] methylxanthine per minute.
(§2) Apparent kinetic parameters of NdmA-His6 and NdmB-His6 were determined by measuring the initial rate of disappearance (vo) of methylxanthines in 50 mM KPi buffer (pH 7.5) at 30° C. The initial substrate concentrations ([S]) used in these experiments were from 25 to 500 μM. Substrates were incubated with His6-NdmD plus either NdmA-His6 or NdmB-His6 under standard conditions for 15 minutes. At 1, 5, 10, and 15 minutes, samples were removed from the reaction mixtures to quantitate substrate concentrations by HPLC. Plots of substrate concentrations against time were used to determine the initial rates of disappearance of substrates which were linear over 15 minutes. The apparent kinetic parameters were determined from Michaelis-Menten plots of vo against [S] fitted with the equation

His6-NdmD = His6-NdmD (Pseudomonas putida, UniProt H9N291); assay: N-demethylation by purified His6-NdmD alone; type: biochemical, Pseudomonas putida CBB5
Method: as §1

[2] = system: Ndm (methylxanthine N-demethylase) with Ccr reductase
NdmC = assay: N-demethylation by NdmC fraction co-purified with reductase; type: biochemical, Pseudomonas putida CBB5
From the text: This activity was neither associated with NdmA nor with NdmB. […] Cloning of NdmC has proven difficult; nevertheless based on the fact that purified His6-NdmD had no activity on 7-methylxanthine, we annotate orf 8 as aanother RO with highly specific N-7 demthylase activity.

NdmB-His6 = NdmB-His6 (Pseudomonas putida, UniProt H9N290); assay: Kinetic parameters of NdmB-His6 with His6-NdmD; type: biochemical, Pseudomonas putida CBB5
Method: as §1, §2

NdmB-His6, H9N290 = target: T3, NdmB-His6, H9N290
T3 chain: T1 sequence 2

NdmA-His6, H9N289 = target: T4, NdmA-His6, H9N289
T4 chain: T1 sequence 1

[3] = substrate: Cn1c(=O)c2[nH]cnc2n(C)c1=O; assay: Kinetic parameters of NdmA-His6 with His6-NdmD; type: biochemical, Pseudomonas putida CBB5; settings: other: NdmA-His6 plus His6-NdmD, pH 7.5, 30° C.
Method: as §1
Apparent kinetic parameters of NdmA-His6 and NdmB-His6 were determined by measuring the initial rate of disappearance (vo) of methylxanthines in 50 mM KPi buffer (pH 7.5) at 30° C. […] At 1, 5, 10, and 15 minutes, samples were removed from the reaction mixtures to quantitate substrate concentrations by HPLC. […] The apparent kinetic parameters were determined from Michaelis-Menten plots of vo against [S] fitted with the equation

[4] = target: T5, NdmB, 35 kDa subunit of N-demethylase Ndm purified from Pseudomonas putida CBB5 (Pseudomonas putida CBB5, UniProt H9N290 1-355); assay: gel filtration of purified native Ndm (single symmetric peak, about 240 kDa), fractions checked by SDS-PAGE
T5 construct: Native protein purified from CBB5; Rieske [2Fe-2S] non-heme iron oxygenase; also called 35 kDa-protein
T5 sequence (looked up): T1 sequence 2

For `NC(=O)C1=CN([C@@H]2O[C@H](COP(=O)(O)OP(=O)(O)OC[C@H]3O[C@@H](n4cnc5c(N)ncnc54)[C@H](OP(=O)(O)O)[C@@H]3O)[C@@H](O)[C@H]2O)C=CC1` [NADPH], the “Ccr activity relative to that with NADH” value (Ccr) was 22%.

“Ccr, partially purified cytochrome c reductase component of Pseudomonas putida CBB5” was tested, and the N-demethylase activity [1] was “No N-demethylase activity was observed when purified Ndm was assayed without the Ccr fraction”.

For `Cn1cnc2[nH]c(=O)[nH]c(=O)c21` [7-Methylxanthine, 7-methylxanthine], the “N-demethylation activity of NdmA” value (NdmA-His6) was “inactive”, the Km (NdmA-His6; NdmA-His6 plus His6-NdmD, pH 7.5, 30° C.) was “∞” and the “activity of purified His6-NdmD” value (His6-NdmD) was “no activity”. For the same molecule, the “product formed from paraxanthine” value ([2]; 90 minutes, 7.4 mU (7.4 units) of Ndm) was 126.9 ± 6.4 µM, the N-demethylation product present ([2]; from paraxanthine, after 13 minutes) was “Approximately 39.9 μM” and the Km ([2]; read-out: apparent KM, saturating Ccr, 50 μM Fe2+, 30° C., 50 mM KPi pH 7.5) was 63.8 ± 7.5 µM. The apparent kcat ([2]; saturating Ccr, 50 μM Fe2+, 30° C., 50 mM KPi pH 7.5) was 1.58 ± 0.05 s⁻¹, the “N-demethylation by NdmC/reductase fraction” value (NdmC) was “specifically N-demethylated” and the “N-demethylation activity of NdmB” value (NdmB-His6) was “no activity”. The Km (NdmB-His6; NdmB-His6 plus His6-NdmD, pH 7.5, 30° C.) was “∞”.

B1: His6-NdmD (protein)
chain: HHHHHHSSGLVPRGSHMNKLDVNQWFPIATTEDLPKRHVFHATLLGQEMAIWRDDSGSVNAWENRCPHRGLRLTLGANTGNELRCQYHGWTYESGTGGCTFVPAHRDAPPPNAARVNTFPVREKHGFIWTTLGQPPGEPISILDDAQLVNAVKTNLHSVVIDADIDGVVSVLRQNLSAFIDVFGAASAEDLHLKSMLQDRGILVTRSGSIAIHFYMQRSTISKCVVHAQVLTPGRPGYELQKNYSYAMNVIRRAAEAVATDLISITDISDQTIEKLEVVRENMTKAPPTHYICEVVTRTQETGDINSYWLKPIGYPLPAFSPGMHISITTPEGSIRQYSLVNGPDERESFIIGVKKEIQSRGGSRSMHEDVKVGTQLKVTLPRNGFPLVQTRKHPILVAGGIGITPILCMAQALDQQGSSYEIHYFARAFEHVPFQDRLTALGDRLNVHLGLGPDETRAKLPDIMEIHNAQDVDVYTCGPQPMIETVSAVALAHGIAEESIRFEFFSKKNDVPVSDEEYEVELKKTGQIFTVSPGSTLLQACLDNDVRIEASCEQGVCGTCITPVVSGDLEHHDTYLSKKERESGKWIMPCVSRCKSKKIVLDL
With B1 the “N-demethylation of theobromine to 7-methylxanthine (HPLC)” value (NdmB-His6, H9N290) was “NdmB-His6 with His6-NdmD, theobromine, NADH, and Fe^2+ resulted in stoichiometric demethylation at N3 of theobromine to 7-methylxanthine” and the “N-demethylation of caffeine to theobromine (HPLC)” value (NdmA-His6, H9N289) was “when NdmA-His6 was incubated with His6-NdmD, caffeine, NADH, and exogenous Fe^2+, caffeine was stoichiometrically demethylated at N1 to theobromine”.

B2: NdmA, 40 kDa subunit of N-demethylase Ndm purified from Pseudomonas putida CBB5 (enzyme, UniProt H9N289 1-351, looked up)
chain: T1 sequence 1
notes: Native protein purified from CBB5; Rieske [2Fe-2S] non-heme iron oxygenase; also called 40 kDa-protein
In the case of B2, the Km [3] is reported as 91. μM and the binding result [4] is reported as “binds”.
